# Results from patent US8680052B1, “Methods of treating, reducing the incidence of, and/or preventing ischemic events” (The Medicines Company, priority 2013, dated 2014).
# Test system: platelets
# Experiment: Example 4: light transmission aggregometry (LTA) induced by 5 and 20 μM ADP
# Format: in vivo, human
# Protocol: The study involved 12 patients who met the criteria of being 18-75 years of age, having coronary artery disease (CAD) documented by a previous MI or coronary revascularization, and taking 81 mg of aspirin daily. […] Prohibited concomitant medications included strong and potent CYP3A inhibitors, simvastatin and lovastatin at doses more than 40 mg/day, omeprazole or esomeprazole, and digoxin. Use of non-steroidal anti-inflammatory agents was discouraged during study participation but not prohibited.
# Each patient was administered a 30 μg/kg bolus of cangrelor followed immediately by a 2 hr infusion at a rate of 4.0 μg/kg/min. A loading dose of ticagrelor (180 mg) was given after 0.5 hr or 1.25 hr (n=6 for each). Blood for pharmacodynamic platelet function studies was taken after 0.5 or 1.25 hr (corresponding to the time of ticagrelor load, n=6 for each), and then at 1.75, 2, 2.25, 2.5, 2.75, 3, 4, and 5.25 hr. Patients were assigned randomly to receive either 6 (n=6) or 7 (n=6) doses of ticagrelor to be taken every 12 hours following the discontinuation of the infusion of cangrelor. On study day 5, each patient was administered a 30 μg/kg bolus of cangrelor followed immediately by a 2 hr infusion at a rate of 4.0 μg/kg/min. Blood for pharmacodynamic assessment was taken after 1 and 2 hr. Adverse events were queried throughout study participation that ended with a telephone interview performed on study day 10-12.
# Pharmacodynamic assessment included light transmission aggregometry (LTA), VerifyNow® P2Y12 assay, vasodilator-stimulated phosphoprotein (VASP) index, and platelet activation measured with the use of flow cytometry. Assessment of LTA, VerifyNow®, and platelet activation with the use of flow cytometry was performed within 30 min of blood being taken. In the case of flow cytometry, samples were processed to fixation and then batched for analysis. For VASP, index samples were batched and processed as recommended by the vendor within 2 h of blood being taken. This approach limited the time from fixation of VASP index to flow analysis to less than 1 h.
# LTA induced by 5 μM and 20 μM adenosine diphosphate (ADP) was quantified ex vivo (i.e. in non-adjusted platelet rich plasma). Platelet-poor plasma was set as 100% aggregation, and both maximal (peak) and terminal (at 300 s) aggregation were measured with a PAP4 aggregometer (BioData, Horsham, Pa.). VerifyNow® P2Y12 assay (Accumetrics Inc, San Diego, Calif.) that measures the effects of drugs on the P2Y12 receptor by activating platelets with prostaglandin El in addition to ADP was used in accordance with the instructions provided by the manufacturer. Platelet reactivity was expressed in P2Y12 reaction units (PRU). Activation of platelets was identified with the use of flow cytometry as previously described.^17. And to determine the VASP index, a commercially available kit (Diagnostica Stago, Inc, Parsippany NJ) was used. ^17 Schneider D J, Sobel B E. Streamlining the design of promising clinical trials: in-vitro testing of antithrombotic regimens and multiple agonists of platelet activation. Coron Artery Dis. 2009; 20:175-8.
# [1] = Study Day 1, 1.75 h, Ticagrelor at 0.5 hr
# [2] = Study Day 1, 1.75 h, Ticagrelor at 1.25 hr
# [3] = Study Day 1, 2.0 h, Ticagrelor at 0.5 hr
# [4] = Study Day 1, 2.0 h, Ticagrelor at 1.25 hr
# [5] = Study Day 1, reference 0.5/1.25 h, All
# [6] = Study Day 1, reference 0.5/1.25 h, Ticagrelor at 0.5 hr
# [7] = Study Day 1, reference 0.5/1.25 h, Ticagrelor at 1.25 hr
# [8] = Study Day 5, 1.0 h, Ticagrelor 6 doses
# [9] = Study Day 5, 1.0 h, Ticagrelor 7 doses
# [10] = Study Day 5, 2.0 h, Ticagrelor 6 doses
# [11] = Study Day 5, 2.0 h, Ticagrelor 7 doses
smiles,measurement,setting,value
"CSCCNc1nc(SCCC(F)(F)F)nc2c1ncn2[C@@H]1O[C@H](COP(=O)(O)OP(=O)(O)C(Cl)(Cl)P(=O)(O)O)[C@@H](O)[C@H]1O [Cangrelor, cangrelor]","IPA, 5 μM ADP, LTA","Study Day 1, 1.75 h, All",92 ± 5%
same,"IPA, 20 μM ADP, LTA","Study Day 1, 1.75 h, All",97 ± 2%
same,"PR, 5 μM ADP, LTA","Study Day 1, 1.75 h, All",3.4 ± 2.2%
same,"PR, 20 μM ADP, LTA","Study Day 1, 1.75 h, All",2.2 ± 1.4%
same,"IPA, 5 μM ADP, LTA",[1],92 ± 5%
same,"IPA, 20 μM ADP, LTA",[1],97 ± 2%
same,"PR, 5 μM ADP, LTA",[1],4.2 ± 2.4%
same,"PR, 20 μM ADP, LTA",[1],2.3 ± 1.0%
same,"IPA, 5 μM ADP, LTA",[2],93 ± 6%
same,"IPA, 20 μM ADP, LTA",[2],97 ± 3%
same,"PR, 5 μM ADP, LTA",[2],2.7 ± 1.8%
same,"PR, 20 μM ADP, LTA",[2],2 ± 1.8%
same,"IPA, 5 μM ADP, LTA","Study Day 1, 2.0 h, All",92 ± 3%
same,"IPA, 20 μM ADP, LTA","Study Day 1, 2.0 h, All",97 ± 3%
same,"PR, 5 μM ADP, LTA","Study Day 1, 2.0 h, All",4.1 ± 2%
same,"PR, 20 μM ADP, LTA","Study Day 1, 2.0 h, All",2.3 ± 2.2%
same,"IPA, 5 μM ADP, LTA",[3],91 ± 3%
same,"IPA, 20 μM ADP, LTA",[3],95 ± 2%
same,"PR, 5 μM ADP, LTA",[3],4.8 ± 1.9%
same,"PR, 20 μM ADP, LTA",[3],3.5 ± 1.9%
same,"IPA, 5 μM ADP, LTA",[4],93 ± 3%
same,"IPA, 20 μM ADP, LTA",[4],98 ± 3%
same,"PR, 5 μM ADP, LTA",[4],3.3 ± 2%
same,"PR, 20 μM ADP, LTA",[4],1.2 ± 1.9%
same,"IPA, 5 μM ADP, LTA",[5],93 ± 3%
same,"IPA, 20 μM ADP, LTA",[5],98 ± 2%
same,"PR, 5 μM ADP, LTA",[5],3.6 ± 1.8%
same,"PR, 20 μM ADP, LTA",[5],1.7 ± 1.7%
same,"IPA, 5 μM ADP, LTA",[6],92 ± 4%
same,"IPA, 20 μM ADP, LTA",[6],97 ± 2%
same,"PR, 5 μM ADP, LTA",[6],4.2 ± 2.1%
same,"PR, 20 μM ADP, LTA",[6],2 ± 1.5%
same,"IPA, 5 μM ADP, LTA",[7],93 ± 2%
same,"IPA, 20 μM ADP, LTA",[7],98 ± 3%
same,"PR, 5 μM ADP, LTA",[7],3 ± 1.4%
same,"PR, 20 μM ADP, LTA",[7],1.3 ± 2.0%
same,"IPA, 5 μM ADP, LTA","Study Day 5, 1.0 h, All",96 ± 3%
same,"IPA, 20 μM ADP, LTA","Study Day 5, 1.0 h, All",98 ± 2%
same,"PR, 5 μM ADP, LTA","Study Day 5, 1.0 h, All",2.1 ± 1.7%
same,"PR, 20 μM ADP, LTA","Study Day 5, 1.0 h, All",1.5 ± 1.5%
same,"IPA, 5 μM ADP, LTA",[8],96 ± 4%
same,"IPA, 20 μM ADP, LTA",[8],98 ± 2%
same,"PR, 5 μM ADP, LTA",[8],1.5 ± 1.6%
same,"PR, 20 μM ADP, LTA",[8],1.5 ± 1.6%
same,"IPA, 5 μM ADP, LTA",[9],96 ± 3%
same,"IPA, 20 μM ADP, LTA",[9],98 ± 2%
same,"PR, 5 μM ADP, LTA",[9],2.7 ± 1.6%
same,"PR, 20 μM ADP, LTA",[9],1.5 ± 1.5%
same,"IPA, 5 μM ADP, LTA","Study Day 5, 2.0 h, All",96 ± 4%
same,"IPA, 20 μM ADP, LTA","Study Day 5, 2.0 h, All",98 ± 2%
same,"PR, 5 μM ADP, LTA","Study Day 5, 2.0 h, All",2.2 ± 2.2%
same,"PR, 20 μM ADP, LTA","Study Day 5, 2.0 h, All",1.3 ± 1.6%
same,"IPA, 5 μM ADP, LTA",[10],97 ± 3%
same,"IPA, 20 μM ADP, LTA",[10],98 ± 1%
same,"PR, 5 μM ADP, LTA",[10],1.5 ± 1.5%
same,"PR, 20 μM ADP, LTA",[10],1.2 ± 1.5%
same,"IPA, 5 μM ADP, LTA",[11],95 ± 5%
same,"IPA, 20 μM ADP, LTA",[11],98 ± 3%
same,"PR, 5 μM ADP, LTA",[11],2.8 ± 2.7%
same,"PR, 20 μM ADP, LTA",[11],1.5 ± 1.9%
same,"residual reactivity, maximal","combined overall population, 0.5 h after cangrelor was stopped, ticagrelor loaded during infusion",19%
same,residual reactivity,"combined overall population, end of observation period (5.25 h)",< 5%
